Laboratory results published in patent US20130226069A1, “ACNE THERAPEUTIC AGENT AND SEBUM SECERNENT INHIBITOR WHICH COMPRISE INDOLE-3-ALKYLCARBO XYLICACID, AND KITS FOR PHOTODYNAMIC THERAPY CONTAINING THE SAME” (WELSKIN CO., LTD., priority 2007, published 2013).

Legend:
[1] = Sebum secretion inhibition by IAA and IPL, half-face; assay type: in vivo
Experimental: As described in Example 2, IAA was applied to only half of face and 20 J of IPL was irradiated. The face was irradiated 3 times at 2 weeks intervals and the amount of sebum secretion was measured.

[2] = system: S. aureus W-1-14; assay: Bacteriocidal effect of IAA with or without IPL irradiation on S. aureus, colony count; assay type: cell-based, Staphylococcus aureus
Experimental: (§1) P. acnes 706486 and S. aureus W-1-14 was used for this experiment. Mueller Hinton II broth (Becton, Dickinson Co., Sparks, U.S.A) was used for culture of bacteria. The cultured S. aureus colony was dissolved with phosphate buffered saline (PBS, Invitrogen Co., NY, U.S.A) such that the McFarland turbidity became 0.5. The resultant bacterial solution was at the concentration of […]. Then, the bacterial solution was further diluted to the concentration of 1×10^8/ml and 10 μl of the bacterial solution was spread onto the Mueller Hinton II agar (Becton, Dickinson Co., Sparks, U.S.A) plate followed by drying in clean bench for 30 min. IAA was dissolved with Dulbecco's phosphate buffered saline (DPBS, Invitrogen Co., NY, U.S.A) to obtain samples of IAA concentration of 20 mM, 10 mM, 5 mM, 1 mM and 0.5 mM. Three minutes after adding 4 ml of 0 mM, 0.5 mM, 1 mM, 5 mM, 10 mM, and 20 mM IAA solution to 6 bacterial solution inoculated mediums respectively, Intermittent Pulse Laser (IPL, Ellipse Flex DDD, Denmark) was irradiated to the mediums. 10 J/cm^2 of the IPL of wavelength of 400 nm to 720 nm was irradiated to the mediums, using an applicator equipped with a filter. One minute after IPL irradiation, the mediums were washed for two times with PBS and incubated at 37° C. for 24 hrs and then the number of colonies was counted respectively. Four minutes after adding 4 ml of 0 mM, 0.5 mM, 1 mM, 5 mM, 10 mM, and 20 mM IAA solution to another 6 bacterial solution inoculated mediums, the mediums were treated as the above-mentioned process except that IPL was not irradiated, and then the number of colonies was counted respectively. The above-mentioned process was repeated except that P. acnes inoculated mediums were employed in place of S. aureus inoculated mediums and cultured in an anaerobic chamber substituted with nitrogen, and then the number of colonies was counted.

[3] = system: P. acnes 706486; assay: Bacteriocidal effect of IAA with or without IPL irradiation on P. acnes, colony count; assay type: cell-based, Propionibacterium acnes
Experimental: as §1

[4] = Improvement of acne by IAA and light, half-face, count of inflammatory lesions; assay type: in vivo
Description: IAA was applied to only half of face and 20 J of IPL was irradiated. The face was irradiated 3 times at 2 weeks intervals and the number of inflammatory lesions was counted.

[5] = IAA with IPL, irradiated 3 times at 2 weeks intervals

O=C(O)Cc1c[nH]c2ccccc12 [IAA, Indole-3-acetic acid]
sebum secretion (mean ± SD), T1 ([1]; IAA + IPL 20 J, after 2 weeks, n = 14, baseline T0 99.64 ± 56.93): 114.71 ± 63.83
sebum secretion (mean ± SD), T2 ([1]; IAA + IPL 20 J, after 4 weeks, n = 14, baseline T0 99.64 ± 56.93): 70.43 ± 42.80
sebum secretion (mean ± SD), T3 ([1]; IAA + IPL 20 J, after 6 weeks, n = 14, baseline T0 99.64 ± 56.93): 65.79 ± 27.90
Change of sebum secretion T1-T0 (mean ± SD) ([1]; IAA + IPL, 2 weeks versus baseline, p 0.433): 15.07 ± 69.70
Change of sebum secretion T2-T0 (mean ± SD) ([1]; IAA + IPL, 4 weeks versus baseline, p 0.032): −29.21 ± 45.67
Change of sebum secretion T3-T0 (mean ± SD) ([1]; IAA + IPL, 6 weeks versus baseline, p 0.015): −33.86 ± 44.98
inhibitory effect of sebum secretion [1, 5]: significant inhibitory effect of sebum secretion
number of colonies ([2]; 20 mM IAA solution, without IPL irradiation): 60 % of control group
number of colonies ([2]; IPL irradiation and 0.5 mM IAA solution): 63 % of control group
number of colonies ([2]; IPL irradiation and 1 mM IAA solution): 32 % of control group
number of colonies ([3]; 5 mM or more IAA solution, IPL not irradiated): 68 % of control group
growth of bacteria ([3]; 20 mM IAA solution, with IPL irradiation): no growth of bacteria
inhibitory effects on P. acnes proliferation ([3]; IAA with IPL irradiation, 10 J/cm^2, 400 nm to 720 nm): dramatic inhibitory effects
Number of inflammatory lesion (mean ± SD), T1 ([4]; IAA + IPL 20 J, after 2 weeks, n = 14, baseline T0 16.21 ± 9.18): 15.50 ± 9.03
Number of inflammatory lesion (mean ± SD), T2 ([4]; IAA + IPL 20 J, after 4 weeks, n = 14, baseline T0 16.21 ± 9.18): 13.93 ± 8.54
Number of inflammatory lesion (mean ± SD), T3 ([4]; IAA + IPL 20 J, after 6 weeks, n = 14, baseline T0 16.21 ± 9.18): 13.93 ± 8.30
Change in number of inflammatory lesion T1-T0 (mean ± SD) ([4]; IAA + IPL, 2 weeks versus baseline, p 0.246): −0.71 ± 2.20
Change in number of inflammatory lesion T2-T0 (mean ± SD) ([4]; IAA + IPL, 4 weeks versus baseline, p 0.024): −2.29 ± 3.36
Change in number of inflammatory lesion T3-T0 (mean ± SD) ([4]; IAA + IPL, 6 weeks versus baseline, p 0.026): −2.29 ± 3.41
improvement of acne (number of inflammatory lesions) [4, 5]: significant improvement
